Laboratory results reported in US11147816B2, “Composition for inducing differentiation and protection of neural stem cells and method for inducing neuro-regeneration using the same composition” (GENUV Inc., priority 2016, dated 2021).

Experiments:
[1] = system: mouse embryonic neural stem cells; test: Morphology analysis of NSC differentiation in mouse embryonic neural stem cells (Examples 1, 6); type: cell-based
Description: Neural stem cells were isolated from the brain of a day 14.5 mouse embryo, treated with 10 ng/ml human basic fibroblast growth factor (bFGF) (Peprotech, Princeton, NG, cat#.100-18B) and 20 ng/ml human epidermal growth factor (EGF) (Peprotech, cat#. AF-100-15) in a N2 culture medium, and cultured in suspension in a 25 cm2 flask (Nunc, Pittsburgh, Pa.) for 4 days. Formation of neurospheres was observed after 2 days.
In order to isolate single cells, 6-well plates were prepared the day before by treating the wells with 15 μg/ml poly-L-ornithine (Sigma, St. Louis, Mo., cat#.P2533) solution and incubating overnight at 37° C. for coating. The day of the single cell isolation, poly-L-ornithine solution was removed, the plates were washed with PBS three times, and 10 μg/ml fibronectin (Gibco, Waltham, Mass., cat#. 33016015) solution was added and incubated at 37° C. for 2 hours for coating.
Various concentrations of the compound of [Formula 1] […]

[2] = system: mouse adult neural stem cells; settings: trametinib 10 nM, 100 nM, memantine 5 μM, 10 μM, 4 days
Description: NSC were isolated from the subventricular zone of week 8 mouse brain, treated with 20 ng/ml human basic fibroblast growth factor (bFGF) and 20 ng/ml human epidermal growth factor (EGF) in an IPM medium, and cultured as a suspension in 24-well plates for 7 days.
Two days before the isolation of single cells, 6-well plates were prepared by treating the wells with 10 μg/ml poly-L-ornithine solution and incubating overnight at room temperature for coating. The next day, poly-L-ornithine solution was removed and the plates were washed 3 times with sterilized triple distilled water. […] The culture solution used is N2 culture medium (supplemented with 20 ng/ml bFGF and 20 ng/ml EGF). Right before seeding, the coating solution was suctioned out, and the single cells were uniformly seeded into the culture plate before the plate dried up. Cells were allowed to attach to the plates for about one minute, and after checking that cells were sufficiently attached, an additional 1.5 ml of culture medium (N2 culture medium with 20 ng/ml bFGF and 20 ng/ml EGF) was added to the cells and cultured in a 37° C. incubator for 24 hours.
Wells not treated with amyloid-beta were left to use as negative controls.
Gibco's (Waltham, Mass.) human Aβ (1-42) was purchased to use for the amyloid-beta (Aβ), and the following process was followed to create oligomers. First, amyloid-beta was dissolved in 100% HFIP (1,1,1,3,3,3-hexafluoro-2-propanol) (Sigma, cat#.105228) to obtain a concentration of 1 mg/ml and vortexed at room temperature for 1 hour. Then, it was dried for 10 minutes in a speed Vac, after which DMSO (Sigma, cat#.D2650) was added to bring the concentration to 5 mM and then lightly vortexed at room temperature for 10 minutes. […] The solution was incubated at 4° C. for 24 hours and then added into the cultured cells.
The NCSs were cultured with the daily addition of EGF, bFGF, amyloid-beta, and test materials for 4 days.

[3] = system: mouse embryonic neural stem cells; test: Immunocytochemistry analysis, Tuj1 and DAPI staining (Example 3); type: cell-based; settings: 10 nM, 4 days
Description: Tuj1 (Neuron specific class III beta-tubulin) is a neuron specific marker protein, which was conjugated to rhodamine to show fluorescent red, while DAPI binds to the cell DNA and stains the cell nuclei fluorescent blue. […] The medium was removed and the cells were washed with PBS. After fixing with 10% formaldehyde (Sigma cat#. HT501128) at room temperature for 10 minutes, they were washed again with PBS. They were permeabilized with 0.2% Triton X-100 (Sigma, cat#. 93443) at room temperature for 15 minutes, washed with PBS, and incubated with 10% BSA (Sigma, cat#. A2153)+1% normal goat serum (Vector lab, Burlingame, Calif., cat#. S1000) at room temperature for 1 hour. […] The solution was removed, washed with PBS, and incubated at room temperature for 1 hour with the secondary antibody (rhodamine-conjugated antibody) diluted in 1% BSA+1% normal goat serum at a ratio of 1:200. Then, the cells were washed with PBS, incubated with 5 μg/ml DAPI (Sigma, cat#. D9542) for 5 minutes, washed with PBS again, and mounted on a slide glass for analysis with a fluorescent microscope.

[4] = system: mouse adult neural stem cells; test: qRT-PCR of relative mRNA expression of neuronal markers in mouse adult NSC (Example 4-2); type: cell-based; settings: 10 nM for 2 days
5XFAD mouse [5] = test: Tuj1 expression in the somatosensory cortex (Example 9-1); type: in vivo; settings: 0.1 mg/kg orally daily for 28 days, vs vehicle
Description: Anti-Tuj1 antibodies were added to the brain tissue slides of 5XFAD mouse in Example 8 and incubated at 4° C. for 1 day, after which the tissue slides were fluorescently stained by incubating with Fluorescein isothiocyanate (FITC)-secondary antibodies (Invitrogen, cat#. A21121) at room temperature for 1 hour. In FIG. 15, the areas marked with arrows (→) indicate cells stained with Tuj1 and the areas marked with arrowheads (▾) indicate plaques formed by amyloid-beta aggregation. Plaques were present in both vehicle-treated and trametinib-treated groups.

5XFAD mouse [6] = test: Nissl, NeuN and DCX staining in the hippocampal dentate gyrus (Example 9-2); type: in vivo; settings: orally daily for 28 days
Description: After placing in 0.1% cresyl violet (Sigma, cat#. C5042) solution at room temperature for 15 minutes, they were dehydrated by sequentially immersing in 80%, 90%, 100% alcohol, and xylene. Coverslips were put on the slides and the neurons examined.
NeuN staining was performed by the same method as described in Example 8 as was DCX staining, but using anti-DCX antibodies (Santa Cruz, cat#. sc271390) instead of anti-NeuN antibodies.

pERK = test: Western blotting of pERK in brain hemispheres (Example 12); settings: 0.1 mg/kg and 1.0 mg/kg orally daily for 28 days, vs vehicle
Description: The mouse was then anesthetized and perfused with PBS for the extraction of the brain. Of the brains extracted from 3 mice of each group, half of the brain tissue (hemispheres) was immediately stored in the deep freezer for western blotting and ELISA experiments to be performed later.
The powder was divided into 6 parts, put into new tubes, and placed back into the deep freezer. […] The powder was carefully suspended with a pipette in RIPA buffer, incubated on ice for 10 minutes, centrifuged at 13000 rpm, 4° C., and the supernatant was collected. […] The protein bands were detected with a photosensitive imaging system (FIG. 19a). In order to quantify the change in pERK expression, the expression levels of pERK and ERK were measured by densitometry, and the expression level of pERK was normalized against the expression level of ERK.

5XFAD mouse [7] = test: BrdU staining in the hippocampal dentate gyrus (Example 9-3); settings: orally daily for 28 days, vs vehicle
Description: For the BrdU staining to be performed later, 50 mg/kg of BrdU (Sigma, cat#. B5002) was added to the daily dose for the last 5 days. The mouse was then anesthetized and perfused with PBS for the extraction of the brain. Of the brains extracted from 3 mice of each group, half of the brain tissue (hemispheres) was immediately stored in the deep freezer for western blotting and ELISA experiments to be performed later. The other half of the hemispheres plus another 3 extracted mice brains per group were placed in 10% formalin solution at 4° C. for 1 day, which was then followed with the proceeding steps to allow good penetration of paraffin into the brain tissue. The brain tissues were immersed sequentially in 70%, 80%, 95%, 100% alcohol for 1 hour each for dehydration, then immersed in xylene 3 times for 1 hour each for clearing, and embedded in paraffin by placing in liquid paraffin 2 times for 1 hour each. After these procedures, the paraffin-embedded brain tissue (paraffin block) was cut into 5 μm sections, mounted on slides, and stored at room temperature. Prior to immunohistochemical staining, the tissues on the slides were rehydrated by sequentially immersing in xylene, 100%, 90%, 80%, 70%, 50% alcohol,and then water for 5 minutes each. […]

SMILES: CC(=O)Nc1cccc(-n2c(=O)n(C3CC3)c(=O)c3c(Nc4ccc(I)cc4F)n(C)c(=O)c(C)c32)c1 [trametinib, N-(3-{3-cyclopropyl-5-[(2-fluoro-4-iodophenyl)amino]-6,8-dimethyl-2,4,7-trioxo-3,4,6,7-tetrahydropyrido[4,3-d]pyrimidin-1(2H)-yl}phenyl)acetamide]
- differentiation of NSC into neurons (morphology) ([1]; 10 nM, 25 nM and 100 nM, added daily, 4 days): readily induced the differentiation of NSC into neurons
- NSC differentiation-inducing effect (morphology) ([1]; 0.1 μM, day 2 of culture): excellent NSC differentiation-inducing effect
- concentration at which the differentiation-inducing effect is seen ([1]; added daily, 4 days of culture): ≥ 10 nM
- cell toxicity / cell death (morphology) ([2]; AS703026 10 μM): did not elicit cell toxicity
- differentiation of NSC into neurons (morphology) ([2]; with or without 10 μM oligomeric Aβ(1-42)): readily induced the differentiation of NSC into neurons
- neuron differentiation by Tuj1 staining [3]: showed increasingly active differentiation activity
- mRNA expression of cholinergic neuron marker ChAT [4]: increased the expression
- mRNA expression of dopaminergic neuron marker TH [4]: increased the expression
- mRNA expression of neuronal marker Tuj1 [4]: increased the expression
- number of cells stained with Tuj1, somatosensory cortex (5XFAD mouse [5]): significant increase in the number of cells stained with Tuj1
- immature neurons stained by DCX in the dentate gyrus (5XFAD mouse [6]): seen to be present
- number of cells with morphology of Type 2 or Type 3 cells in the subgranular zone of the dentate gyrus (Nissl, NeuN) (5XFAD mouse [6]): increased considerably
- protein level of pERK in the brain (pERK): considerably lower
- number of BrdU stained cells in the dentate gyrus (5XFAD mouse [7]): an increase in the number of cells stained with BrdU
